Results from PubChem BioAssay AID248 (DTP/NCI, 2004).
Several values for one entry are separate records, joined by “and”; a condition that tells them apart may be missing. Identical values can stand only once. Toxic doses and inconclusive results are not listed. Cut-off read from the data, not from the text of the source: active = T/C of 150% or more; inactive = T/C below 125%.

System: L1210 leukemia ip in BDF1 mice, survival T/C
Experiment: NCI In Vivo Anticancer Drug Screen. Data for tumor model L1210 Leukemia (intraperitoneal) in B6D2F1 (BDF1) mice
Conditions: endpoint: mean survival time, higher = longer survival
Method in brief: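 Value reflects the ratio of survival in compound-treated mice to survival in vehicle-treated controls, with both groups carrying the same transplanted tumor.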

[1] = dose: 100.0 mg/kg/injection, schedule: Q04DX003 (ip), vehicle: saline with Tween-80
[2] = dose: 200.0 mg/kg/injection, schedule: Q04DX003 (ip), vehicle: saline with Tween-80
[3] = dose: 400.0 mg/kg/injection, schedule: Q04DX003 (ip), vehicle: saline with Tween-80
[4] = dose: 100.0 mg/kg/injection, schedule: Q01DX009 (ip), vehicle: other
[5] = dose: 200.0 mg/kg/injection, schedule: Q01DX009 (ip), vehicle: other
[6] = dose: 400.0 mg/kg/injection, schedule: Q01DX009 (ip), vehicle: other
[7] = dose: 100.0 mg/kg/injection, schedule: Q04DX003 (ip), vehicle: Klucel (hydroxypropylcellulose) (HPC)
[8] = dose: 200.0 mg/kg/injection, schedule: Q04DX003 (ip), vehicle: Klucel (hydroxypropylcellulose) (HPC)
[9] = dose: 400.0 mg/kg/injection, schedule: Q04DX003 (ip), vehicle: Klucel (hydroxypropylcellulose) (HPC)
[10] = dose: 100.0 mg/kg/injection, schedule: Q01DX001 (ip), vehicle: saline with Tween-80
[11] = dose: 200.0 mg/kg/injection, schedule: Q01DX001 (ip), vehicle: saline with Tween-80
[12] = dose: 400.0 mg/kg/injection, schedule: Q01DX001 (ip), vehicle: saline with Tween-80
[13] = dose: 100.0 mg/kg/injection, schedule: Q04DX002 (ip), vehicle: Klucel (hydroxypropylcellulose) (HPC)
[14] = dose: 200.0 mg/kg/injection, schedule: Q04DX002 (ip), vehicle: Klucel (hydroxypropylcellulose) (HPC)

Measured: T/C

[CH3][Hg][O]C(C)=O
inactive: dose: 3.0 mg/kg/injection, schedule: Q01DX009 (ip), vehicle: Klucel (hydroxypropylcellulose) (HPC) 86 % of control | dose: 3.12 mg/kg/injection, schedule: Q04DX003 (ip), vehicle: Klucel (hydroxypropylcellulose) (HPC) 104 % of control | dose: 6.0 mg/kg/injection, schedule: Q01DX009 (ip), vehicle: Klucel (hydroxypropylcellulose) (HPC) 91 % of control | dose: 6.25 mg/kg/injection, schedule: Q04DX003 (ip), vehicle: Klucel (hydroxypropylcellulose) (HPC) 96 % of control | dose: 12.5 mg/kg/injection, schedule: Q04DX003 (ip), vehicle: Klucel (hydroxypropylcellulose) (HPC) 96 % of control and 97 % of control

Oc1ccccc1N=CC1CCCCC1
inactive: [1] 87 % of control | [2] 88 % of control | [3] 92 % of control

CCC(C)NC(=O)NC (configuration not stated)
inactive: dose: 100.0 mg/kg/injection, schedule: Q01DX009 (ip), vehicle: Klucel (hydroxypropylcellulose) (HPC) 100 % of control | dose: 200.0 mg/kg/injection, schedule: Q01DX009 (ip), vehicle: Klucel (hydroxypropylcellulose) (HPC) 97 % of control | dose: 400.0 mg/kg/injection, schedule: Q01DX009 (ip), vehicle: Klucel (hydroxypropylcellulose) (HPC) 101 % of control

Cc1cccc(C)c1NC(=S)N1CCOCC1
inactive: [4] 106 % of control | [5] 116 % of control | [6] 122 % of control

CC[N+](CC)(CC)CCOc1cccc(OCC[N+](CC)(CC)CC)c1OCC[N+](CC)(CC)CC
inactive: dose: 5.0 mg/kg/injection, schedule: Q01DX001 (ip), vehicle: saline 95 % of control | dose: 10.0 mg/kg/injection, schedule: Q01DX001 (ip), vehicle: saline 98 % of control

c1csc(C[N+]23CN4CN(CN(C4)C2)C3)c1
inactive: dose: 100.0 mg/kg/injection, schedule: Q01DX009 (ip), vehicle: saline 92 % of control | dose: 200.0 mg/kg/injection, schedule: Q01DX009 (ip), vehicle: saline 103 % of control | dose: 400.0 mg/kg/injection, schedule: Q01DX009 (ip), vehicle: saline 101 % of control

OCC1OC(Sc2ccccc2)C(O)C(O)C1O (configuration not stated)
inactive: [7] 111 % of control | [8] 105 % of control | [9] 111 % of control

Cc1ccc(C)c(NC(=O)Nc2nccs2)c1
inactive: [10] 96 % of control | dose: 100.0 mg/kg/injection, schedule: Q01DX009 (ip), vehicle: saline with Tween-80 96 % of control and 97 % of control | dose: 100.0 mg/kg/injection, schedule: Q04DX002 (ip), vehicle: saline with Tween-80 96 % of control and 90 % of control | [1] 95 % of control | [11] 104 % of control | dose: 200.0 mg/kg/injection, schedule: Q01DX009 (ip), vehicle: saline with Tween-80 92 % of control and 93 % of control | dose: 200.0 mg/kg/injection, schedule: Q04DX002 (ip), vehicle: saline with Tween-80 93 % of control and 97 % of control | [2] 86 % of control | [12] 96 % of control | dose: 400.0 mg/kg/injection, schedule: Q01DX009 (ip), vehicle: saline with Tween-80 94 % of control and 96 % of control | dose: 400.0 mg/kg/injection, schedule: Q04DX002 (ip), vehicle: saline with Tween-80 100 % of control and 110 % of control | [3] 88 % of control

CC(CC(C)(C)C)C(=O)CCC(C)(C)C (configuration not stated)
inactive: [10] 103 % of control | [11] 95 % of control | [12] 101 % of control

CCCCCCCCCCCCCCCCOc1ccc(Cl)cc1
inactive: dose: 100.0 mg/kg/injection, schedule: Q01DX001 (ip), vehicle: Klucel (hydroxypropylcellulose) (HPC) 95 % of control | [7] 97 % of control | [8] 87 % of control | dose: 400.0 mg/kg/injection, schedule: Q01DX001 (ip), vehicle: Klucel (hydroxypropylcellulose) (HPC) 92 % of control | [9] 93 % of control

C=C(C)CON=C(c1ccccc1)c1ccccc1
inactive: dose: 100.0 mg/kg/injection, schedule: Q04DX003 (ip), vehicle: saline 92 % of control | dose: 200.0 mg/kg/injection, schedule: Q04DX003 (ip), vehicle: saline 96 % of control | dose: 400.0 mg/kg/injection, schedule: Q04DX003 (ip), vehicle: saline 97 % of control

O=C(Nc1ccc([N+](=O)[O-])cc1Cl)Oc1ccc(Br)cc1Br
inactive: [1] 100 % of control | [2] 95 % of control | [3] 100 % of control

C=CCc1ccc(OC(=O)Nc2cccc(Cl)c2)c(OC)c1
inactive: dose: 100.0 mg/kg/injection, schedule: Q01DX009 (ip), vehicle: carboxymethylcellulose (CMC) 98 % of control and 102 % of control | [13] 95 % of control | dose: 100.0 mg/kg/injection, schedule: Q04DX002 (ip), vehicle: carboxymethylcellulose (CMC) 102 % of control | dose: 100.0 mg/kg/injection, schedule: Q04DX003 (ip), vehicle: carboxymethylcellulose (CMC) 101 % of control | dose: 200.0 mg/kg/injection, schedule: Q01DX009 (ip), vehicle: carboxymethylcellulose (CMC) 100 % of control and 92 % of control | [14] 92 % of control | dose: 200.0 mg/kg/injection, schedule: Q04DX002 (ip), vehicle: carboxymethylcellulose (CMC) 112 % of control | dose: 200.0 mg/kg/injection, schedule: Q04DX003 (ip), vehicle: carboxymethylcellulose (CMC) 95 % of control | dose: 400.0 mg/kg/injection, schedule: Q01DX009 (ip), vehicle: carboxymethylcellulose (CMC) 95 % of control and 98 % of control | dose: 400.0 mg/kg/injection, schedule: Q04DX002 (ip), vehicle: Klucel (hydroxypropylcellulose) (HPC) 95 % of control | dose: 400.0 mg/kg/injection, schedule: Q04DX002 (ip), vehicle: carboxymethylcellulose (CMC) 105 % of control | dose: 400.0 mg/kg/injection, schedule: Q04DX003 (ip), vehicle: carboxymethylcellulose (CMC) 100 % of control

O=C(O)C1CC(c2ccccc2)=C(c2ccccc2)CC1C(=O)O (configuration not stated)
inactive: dose: 50.0 mg/kg/injection, schedule: Q04DX002 (ip), vehicle: Klucel (hydroxypropylcellulose) (HPC) 105 % of control | [13] 102 % of control and 114 % of control and 100 % of control | [14] 102 % of control and 100 % of control

CC1CC(C)/C(=N/N(C)C)C(C(O)CC2CC(=O)NC(=O)C2)C1 (configuration not stated)
inactive: dose: 77.8 mg/kg/injection, schedule: Q01DX Z (ip), vehicle: carboxymethylcellulose (CMC) 106 % of control | dose: 116.7 mg/kg/injection, schedule: Q01DX Z (ip), vehicle: carboxymethylcellulose (CMC) 105 % of control | dose: 262.5 mg/kg/injection, schedule: Q01DX Z (ip), vehicle: carboxymethylcellulose (CMC) 119 % of control

NC(=S)N/N=C/c1ccc(F)cn1
inactive: dose: 1.56 mg/kg/injection, schedule: Q01DX009 (ip), vehicle: saline with Tween-80 99 % of control | dose: 3.13 mg/kg/injection, schedule: Q01DX009 (ip), vehicle: saline with Tween-80 106 % of control and 115 % of control | dose: 5.54 mg/kg/injection, schedule: Q01DX009 (ip), vehicle: saline with Tween-80 108 % of control | dose: 6.25 mg/kg/injection, schedule: Q01DX009 (ip), vehicle: saline with Tween-80 119 % of control | dose: 6.25 mg/kg/injection, schedule: Q04DX002 (ip), vehicle: saline with Tween-80 104 % of control | dose: 8.32 mg/kg/injection, schedule: Q01DX009 (ip), vehicle: saline with Tween-80 114 % of control | dose: 12.5 mg/kg/injection, schedule: Q01DX009 (ip), vehicle: saline with Tween-80 119 % of control and 124 % of control | dose: 12.5 mg/kg/injection, schedule: Q04DX002 (ip), vehicle: saline with Tween-80 112 % of control | dose: 18.8 mg/kg/injection, schedule: Q01DX009 (ip), vehicle: saline with Tween-80 98 % of control | dose: 22.0 mg/kg/injection, schedule: Q01DX001 (ip), vehicle: saline with Tween-80 105 % of control | dose: 25.0 mg/kg/injection, schedule: Q04DX002 (ip), vehicle: saline with Tween-80 97 % of control | dose: 33.0 mg/kg/injection, schedule: Q01DX001 (ip), vehicle: saline with Tween-80 107 % of control

CCOC(=O)c1[nH]c(=S)n(-c2ccccc2)c1C(=O)OCC
inactive: dose: 100.0 mg/kg/injection, schedule: Q01DX001 (ip), vehicle: other 97 % of control | [4] 94 % of control and 95 % of control | dose: 100.0 mg/kg/injection, schedule: Q04DX002 (ip), vehicle: other 93 % of control and 87 % of control | dose: 200.0 mg/kg/injection, schedule: Q01DX001 (ip), vehicle: other 108 % of control | [5] 94 % of control and 115 % of control | dose: 200.0 mg/kg/injection, schedule: Q04DX002 (ip), vehicle: other 96 % of control and 97 % of control | dose: 400.0 mg/kg/injection, schedule: Q01DX001 (ip), vehicle: other 103 % of control | [6] 112 % of control and 90 % of control | dose: 400.0 mg/kg/injection, schedule: Q04DX002 (ip), vehicle: other 93 % of control and 114 % of control
